# Laboratory results published in ChEMBL document CHEMBL1131290, “Studies of structure-activity relationship of nitroxide free radicals and their precursors as modifiers against oxidative damage” (1998).
# Columns and labels:
# V79 [1] = conditions: Cricetulus griseus
# [2] = Mean surviving fraction of V79 cells following a 1-h exposure to H2O2.; format: functional, Cricetulus griseus
# [3] = Mean surviving fraction of V79 cells following a 12-Gy dose of radiation.; format: functional, Cricetulus griseus
# V79 [4] = conditions: Cricetulus griseus; remark: listed apart in the source
# [5] = Compound was evaluated for mean surviving fraction of Chinese hamster V79 cells following a 1-h exposure to H2O2.; format: functional, Cricetulus griseus
# [6] = Compound was evaluated for mean surviving fraction of Chinese hamster V79 cells following a 12-Gy dose of radiation.; format: functional, Cricetulus griseus
SMILES,H2O2 prot [2],Radiation prot [3],also measured
CCOC1CC(C)(C)N([O])C(C)(C)C1,,,H2O2 prot (V79 [1]): 1.9
CC1(C)C=C(CNC23CC4CC(CC(C4)C2)C3)C(C)(C)N1,1.9,1.4,
CC1(C)CC(N2C(=O)c3ccccc3C2=O)CC(C)(C)N1O,1.5,,
CN(C)CCCNC(=O)C1=CC(C)(C)N([O])C1(C)C,,,Radiation prot (V79 [4]): 15
CC1(C)CC(N)CC(C)(C)N1O,1,1.1,
CC1(C)C=C(CNC23CC4CC(CC(C4)C2)C3)C(C)(C)N1[O],,,H2O2 prot (V79 [1]): 3.3
CCCCN(CCCC)C1CC(C)(C)N([O])C(C)(C)C1,,,H2O2 prot (V79 [1]): 2.9
CC[N+](CC)(CC)CC1=CC(C)(C)N([O])C1(C)C,,,Radiation prot (V79 [4]): 1.2
CC1(C)C=C(CN2CCCC2)C(C)(C)N1[O],,,Radiation prot (V79 [4]): 21.4
CC1(C)CC(=O)C(C)(C)N1O,1.1,1,
COC(=O)C1=CC(C)(C)N([O])C1(C)C,,,H2O2 prot (V79 [1]): 1.5; Radiation prot (V79 [4]): 0.94
CC1(C)C=C(C[P+](c2ccccc2)(c2ccccc2)c2ccccc2)C(C)(C)N1[O],,,Radiation prot (V79 [4]): 0.72
CC1(C)CC(C(N)=O)C(C)(C)N1[O] (stereo not given),1.7,11.2,
CC1(C)C=C(CNC23CC4CC(CC(C4)C2)C3)C(C)(C)N1O,2.5,1.8,
CC1(C)CCC(C)(C)N1O,,,H2O2 prot [5]: 2.3; Radiation prot [6]: 0.7
CC1(C)C=C(C=O)CC(C)(C)N1[O],,,H2O2 prot (V79 [1]): 0.8; Radiation prot (V79 [4]): 6.1
CC1(C)CC(NC2CC(C)(C)N(O)C(C)(C)C2)CC(C)(C)N1O.Cl,1.9,1.4,
CC1(C)C=C(CN2CCCC2)C(C)(C)N1,1,0.34,
CC1(C)C=C(C(=O)NCCCN)C(C)(C)N1,,0.52,
CC1(C)C=C(CO)C(C)(C)N1,0.9,1.5,
CC(=O)C1=CC(C)(C)NC1(C)C,1.3,0.63,
CC1(C)C=C(C(=O)NCCO)C(C)(C)N1[O],,,H2O2 prot (V79 [1]): 1.2
CN(C)CC1=CC(C)(C)N(O)C1(C)C,,16,

SMILES,H2O2 prot [2],Radiation prot [3],also measured
CC1(C)C=C(C=O)CC(C)(C)N1,,0.4,
CN1C(C)(C)C=C(C=O)C1(C)C,,0.6,
CC1(C)CCCC(C)(C)N1O,1.5,0.68,
CC(C)(C)NCC1=CC(C)(C)N(O)C1(C)C,2.1,1.2,
CN(C)CC1=CC(C)(C)NC1(C)C,,0.95,
CC1(C)C=C(C(=O)NCCCN2C(=O)c3ccccc3C2=O)C(C)(C)N1,1.1,1.9,
CC1(C)CC(=O)CC(C)(C)N1O,,0.68,
CC1=[N+]([O-])C(C)CC1 (stereo not given),1.1,0.91,
CC1(C)C=C(NC(N)=O)C(C)(C)N1[O],,,H2O2 prot (V79 [1]): 1.2
CC1(C)C=C(CN2CCCCC2)C(C)(C)N1[O],,,Radiation prot (V79 [4]): 19.1
CC1(C)C=C(CNCc2ccccc2)C(C)(C)N1[O],,,H2O2 prot (V79 [1]): 2; Radiation prot (V79 [4]): 5.2
CC1(C)C=C(CO)C(C)(C)N1[O],,,H2O2 prot (V79 [1]): 1.8; Radiation prot (V79 [4]): 2.6
CC1(C)CC(O)CC(C)(C)N1[O] [TEMPOL],2.5,5.1,
CC1(C)C=C(CN2CCCC2)C(C)(C)N1O,,28.3,
CN(CC1=CC(C)(C)N([O])C1(C)C)Cc1ccccc1,,,H2O2 prot (V79 [1]): 2
CC1(C)C=C(C=O)CC(C)(C)N1O,,1.5,
CC(=O)C1=CC(C)(C)N([O])C1(C)C,,4.8,
CN(C)CC1=CC(C)(C)N([O])C1(C)C,,,H2O2 prot (V79 [1]): 2.1; Radiation prot (V79 [4]): 13.9
CC1(C)CC(=O)CC(C)(C)N1,0.5,1.1,
CC1(C)C=C(C(=O)NCCCN2C(=O)c3ccccc3C2=O)C(C)(C)N1O,2.2,1.3,
CC1(C)CC(CO)C(C)(C)N1[O] (stereo not given),,,H2O2 prot (V79 [1]): 1.1; Radiation prot (V79 [4]): 4.7
CC1(C)CC(C(=O)NCCCN2C(=O)c3ccccc3C2=O)C(C)(C)N1O (stereo not given),,1.26,
CC1(C)CC(=O)C(C)(C)N1[O],,,H2O2 prot (V79 [1]): 0.9; Radiation prot (V79 [4]): 10.2

SMILES,H2O2 prot [2],Radiation prot [3],also measured
CC1(C)C=C(CN2CCCCC2)C(C)(C)N1,,0.95,
CC1(C)C=C(C(=O)NCCCN)C(C)(C)N1[O],,,H2O2 prot (V79 [1]): 1.1
CC1(C)CCC(C)(C)N1[O],0.9,4.6,
CC1(C)CC(N)C(C)(C)N1[O] (stereo not given),1.1,12.9,
CC1(C)C=C(CC[Se]C(=N)N)C(C)(C)[NH+]1[O-] (stereo not given),1.3,,
CCCC[N+](CCCC)(CCCC)CC1=CC(C)(C)N([O])C1(C)C,,,H2O2 prot (V79 [1]): 1.1; Radiation prot (V79 [4]): 0.69
CC1(C)C=C(C=O)C(C)(C)N1[O],,,H2O2 prot (V79 [1]): 1.3; Radiation prot (V79 [4]): 2.7
CC1(C)CC(N2C(=O)c3ccccc3C2=O)CC(C)(C)N1,0.8,1.7,
CC1(C)C=C(C=O)C(C)(C)N1O,2.7,0.13,
CC1(C)C=C(C(=O)O)C(C)(C)N1[O],1,,
CC1(C)C=C(CN2CCCCC2)C(C)(C)N1O,,30,
CCOC1CC(C)(C)N(O)C(C)(C)C1,1.6,,
CC(=O)C1=CC(C)(C)N(O)C1(C)C,2.7,0.15,
CC1(C)C=C(CCSC(=N)N)C(C)(C)N1[O],,,H2O2 prot (V79 [1]): 2.2; Radiation prot (V79 [4]): 7.5
CC1(C)C=C(CN2C(=O)c3ccccc3C2=O)C(C)(C)N1O,3.3,0.49,
CC1(C)CC(=O)CC(C)(C)N1[O],1.1,7.1,
CC1(C)C=C(CO)C(C)(C)N1O,3.1,0.92,
CCCCN(CCCC)CC1=CC(C)(C)N([O])C1(C)C,,,H2O2 prot (V79 [1]): 3.2
CC1(C)C=C(C(=O)NCCCO)C(C)(C)N1[O],,,H2O2 prot (V79 [1]): 1.1
CC1(C)C=C(CNC23CC4CC(CC(C4)C2)C3)CC(C)(C)N1O,2.1,,
CC1(C)C=C(CCNC(=N)N)C(C)(C)N1[O],,,Radiation prot (V79 [4]): 1
CN(CC1=CC(C)(C)N(O)C1(C)C)C12CC3CC(CC(C3)C1)C2,2.6,,
CC1(C)C=C(CN2Cc3ccccc3C2)C(C)(C)N1[O],,,Radiation prot (V79 [4]): 3.9

SMILES,H2O2 prot [2],Radiation prot [3],also measured
CC1(C)CC(O)C(C)(C)N1[O] (stereo not given),,,H2O2 prot (V79 [1]): 1.4; Radiation prot (V79 [4]): 2.9
CCCCNCC1=CC(C)(C)N([O])C1(C)C,,,H2O2 prot (V79 [1]): 2.5; Radiation prot (V79 [4]): 3.96
CC(=O)NC1CC(C)(C)N(O)C(C)(C)C1,1.8,0.85,
CCOCC1=CC(C)(C)N(O)C1(C)C,3.2,,
CC1(C)CC(O)CC(C)(C)N1O [TEMPOL HYDROXYLAMINE],,1.05,
CC1(C)C=C(CNC2CCCCC2)C(C)(C)N1[O],,,Radiation prot (V79 [4]): 4.4
CC(C)(C)NCC1=CC(C)(C)N([O])C1(C)C,,,H2O2 prot (V79 [1]): 2; Radiation prot (V79 [4]): 19.3
CC1(C)CC(N)CC(C)(C)N1[O] [TEMPAMINE],2.8,18.5,
CN(CC1=CC(C)(C)N([O])C1(C)C)C12CC3CC(CC(C3)C1)C2,,,H2O2 prot (V79 [1]): 3.3
CC1(C)CC(C(=O)O)C(C)(C)N1[O] (stereo not given),1,,
CC1(C)C=C(C(=O)NCC(=O)O)C(C)(C)N1[O],,,H2O2 prot (V79 [1]): 0.9; Radiation prot (V79 [4]): 0.98
CC1(C)CC(O)CC(C)(C)N1,0.4,0.9,
CCN(CC)CC1=CC(C)(C)N([O])C1(C)C,,,Radiation prot (V79 [4]): 17.2
CC1(C)C=C(C=O)C(C)(C)N1,0.9,0.07,
CCOCC1=CC(C)(C)N([O])C1(C)C,,,H2O2 prot (V79 [1]): 1.3
CC1(C)CC(CN)C(C)(C)N1[O] (stereo not given),0.7,13.7,
CCN(CC)CC1=CC(C)(C)N(O)C1(C)C,,0.96,
CC1(C)CCC=[N+]1[O-],0.9,0.93,
CC1(C)CC(NS(C)(=O)=O)CC(C)(C)N1O,,0.77,
CC1(C)C=C(C(=O)NCCCN)C(C)(C)N1O,1,,
CC1(C)CCCC(C)(C)N1[O],3.5,4.2,
CC1=[N+]([O-])C(C)(C)CC1,0.8,1.1,
CC1(C)C=C(C(N)=O)C(C)(C)N1[O],,,H2O2 prot (V79 [1]): 1; Radiation prot (V79 [4]): 10.7
